Measured values published in patent publication US6384007B1, “Method and composition for enhancing the activity of an enzyme” (Unilever Home & Personal USA division of Conopco, Inc., priority 1999, dated 2002).

Key:
[1] = Bleaching of tomato stains on cotton swatches (Example 1); settings: detergent wash solution 2 g/l, 1 hour at 30° C
Experimental: The potential of the enhancer, Ethanedioic acid, 2-[(4-aminophenyl)sulfonyl)hydrazide-2-phenylhydrazide, to boost the bleach performance of phenol oxidizing enzyme was assessed by washing cotton swatches soiled with tomato stains
Purified phenol oxidizing enzyme from Acremonium murorum was added to the wash solution at 100 mg/l. The enzyme from Acremonium murorum is described in WO-A-00/05349 (Unilever). The enhancer was dosed at 250 μM. The following formulation was used as wash solution (2 g/l): […]
The swatches were washed during 1 hour at 30° C. After the wash, the swatches were tumble-dried and the reflectance spectra were measured using a Minolta spectrometer. The color differences between the swatch before and after the wash data were expressed in the CIELAB L*a*b* color space. In this color space, L* indicates lightness and a* and b* are the chromaticity coordinates. Color differences between two swatches are expressed as ΔE, which is calculated from the following equation:
ΔE={square root over (ΔL^2+Δa^2+Δb^2+L )}
Table 1: Stain bleach performance of the phenol oxidizing enzyme/enhancer system on tomato stains in the presence of different enhancers.

[2] = Bleaching of tomato stains on cotton swatches (Example 2); settings: enhancer 250 μM + enzyme 20 mg/l; detergent formulation pH 9; 30 minutes at 30 C
Experimental: Stain bleach experiments were performed as in Example 1, except that 20 mg/l enzymes was used. The detergent formulation was set at pH 9, and the swatches washed during 30 minutes at 30 C.
Table 2: Stain bleach performance of the phenol oxidizing enzyme/enhancer system on tomato stains in the presence of the enzymatic bleach system.

- ΔE (CIELAB colour difference of swatch before and after wash), wash with enzyme and enhancer added ([1]; enhancer 250 μM + phenol oxidizing enzyme from Acremonium murorum 100 mg/l): ΔE = 11.9
- ΔE (CIELAB colour difference of swatch before and after wash), wash with enzyme and enhancer added [2]: ΔE = 10.6
Structure (SMILES): Nc1ccc(S(=O)(=O)NNC(=O)C(=O)NNc2ccccc2)cc1 [enhancer, Ethanedioic acid, 2-[(4-aminophenyl)sulfonyl)hydrazide-2-phenylhydrazide]
- ΔE (CIELAB colour difference of swatch before and after wash), wash with enhancer only ([1]; enhancer 250 μM, no enzyme): ΔE = 9.1
